Reference: publication PMC10975076, “Trypanocidal and Anti-Inflammatory Effects of Three ent-Kaurane Diterpenoids from Gymnocoronis spilanthoides var. subcordata (Asteraceae)” (Pharmaceutics, 2024)
Read-outs that look alike come from different tables or passages of the source.

Tests used:
[1] = tested on: T. cruzi amastigotes (Tulahuen strain expressing β-galactosidase); assay: In vitro activity against amastigotes in infected Vero cells, β-galactosidase/CPRG readout; assay type: cell-based; details: Trypanosoma cruzi, 120 h, intracellular amastigotes in Vero cells, 5 days
Description: Cultures of Trypanosoma cruzi epimastigotes (RA strain) were maintained through weekly passages in LIT medium supplemented with 10% fetal bovine serum at 28 °C. Trypanosoma cruzi bloodstream trypomastigotes (RA strain) were obtained from infected CF1 mice by cardiac puncture 15 days after infection at the peak of parasitemia while transfected trypomastigotes expressing β-galactosidase (Clone C4, e Tulahuen strain) were obtained from infected Vero cells.
The activity of compounds 1–3 on the intracellular forms of T. cruzi was evaluated. Vero cells (5 × 10^3/well) were infected with culture-derived trypomastigotes of T. cruzi from the Tulahuen strain expressing β-galactosidase (MOI: 10). After an O.N. incubation at 37 °C, and 5% CO2, non-infecting parasites were washed out and infected cells were incubated with increasing concentrations of the compounds (0.001–50 µg/mL). Cells treated with DMSO or benznidazole and non-infected cells were included as controls. After 5 days, cells were lysed with 1% Nonidet P-40, and chlorophenol red-β-D-galactopyranoside (CPRG) (100 μM) was added as a substrate for the β-galactosidase enzyme. The plate was then incubated for 4 h at 37 °C and β-galactosidase activity was determined by measuring the absorbance at 570 nm. The percentage of inhibition for each concentration of compounds was calculated as: 100 − {[(absorbance of treated infected cells)/(absorbance of untreated infected cells)] × 100}.

[2] = tested on: NF-kB, RAW-Blue cells; assay: NF-kB reporter assay in RAW-Blue cells, SEAP activity; assay type: cell-based, murine; details: 24 h
Description: The effect of compound 1 was evaluated on a cell line that secretes alkaline phosphatase as a surrogate marker for the secretion of NF-kB. RAW-Blue cells (InvivoGen) (100 μL) were seeded in a 96-well plate (100,000 cells/well) with DMEM at 37 °C in a 5% CO2 atmosphere. […] Untreated cells were included as controls. The supernatants were collected and absorbance at 620–655 nm was measured after the addition of the Quanti-Blue reagent (InvivoGen) in a microplate reader. Levels of NF-kB were calculated following the manufacturer’s instructions.

[3] = tested on: nitric oxide production, Raw-Blue cells; assay: Nitric oxide production, Griess reaction on RAW-Blue supernatants; assay type: cell-based, murine
Description: The Griess reaction assay was performed to determine the effect of compound 1 on Nitric Oxide production. The same supernatant samples obtained in Section 2.8.2 (50 µL) were combined with 100 µL of Griess reagent. After incubation at room temperature for 30 min, absorbance was measured at 540 nm. A calibration curve was constructed with 1–250 µM of […] to extrapolate the nitrite concentration in the tested samples.

[4] = tested on: iNOS expression and NO production; design: method as in doi:10.7324/JAPS.2023.95766; details: cited from earlier work
[5] = tested on: T. cruzi epimastigotes; assay: Transmission electron microscopy of treated epimastigotes; assay type: cell-based, Trypanosoma cruzi; details: 20 µM
Description: All procedures were carried out according to Brengio et al.. Epimastigotes from T. cruzi were treated with 20 µM of compound 1 for either 48 h or 72 h. Then, the parasites were centrifuged at 1000× g for 10 min and fixed with 2.5% glutaraldehyde. Subsequently, they were washed three times with PBS and postfixed overnight with 2% OsO4. After washing twice with PBS, cells were stained with 1% uranyl acetate. The samples were dehydrated sequentially in ethanol and acetone and embedded in Epon 812. Ultrathin slices of 60 nm were obtained using an automatic Leica-ultracut R ultramicrotome and observed with a Microscope Zeiss EM900 (Zeiss, Oberkochen, Germany).

[6] = Cytotoxicity assay on splenocytes, propidium iodide flow cytometry; assay type: cell-based, mice; details: BALB/c, mouse, murine splenocytes
Description: The cytotoxicity of the isolated compounds was evaluated using splenocytes obtained from BALB/c mice. Primary cell cultures (1.5 × 10^5) were incubated with different concentrations of the isolated phytochemicals (5–200 μg/mL) in RPMI medium supplemented with 10% fetal bovine serum. After 48 h of incubation at 37 °C (5% CO2), the cells were harvested, washed once with PBS and stained with 2.5 μg/mL propidium iodide (PI) for 5 min at room temperature. Subsequently, cell death was assessed via flow cytometry using a BD FACSaria II cytometer. Cells incubated with DMSO were used as 100% viability control, and the death percentage was calculated according to the following formula: {1 − [(% PI^− cells treated)/(% PI^− cells of the viability control)] × 100}.

[7] = tested on: TNF secretion, Raw-Blue macrophages; assay: TNF in RAW-Blue supernatants, capture ELISA; assay type: cell-based, murine; details: 24 h
Description: (§1) The production of the cytokines IL-10 and TNF was also determined in cell supernatant from these samples with an ELISA assay (R&D System, Minneapolis, MN, USA; BD Pharmingen, Franklin Lakes, NJ, USA).

[8] = tested on: type-I Interferon (IFN) pathway, RAW-Lucia ISG cells; assay: Type-I interferon reporter assay in RAW-Lucia ISG cells, Lucia luciferase; assay type: cell-based, murine; details: 24 h
Description: The effect of compound 1 on a type-I Interferon (IFN) reporter cell line stimulated with LPS was studied. RAW-Lucia cells express the Lucia luciferase enzyme under the control of the ISG54 promoter that responds to an IFN-stimulated response element, which is activated by several Interferon Regulatory Factors (IRFs).
RAW-Lucia ISG cells I (InvivoGen, San Diego, CA, USA) (100 μL) were cultured (100,000 cells/well) with DMEM at 37 °C in a 5% CO2 atmosphere to be stimulated with LPS (0.5 µg/mL) or a combination of LPS and compound 1 (1 and 10 µg/mL). Unstimulated cells were included as controls. After a 24 h incubation, the supernatants of each well were collected in order to quantify the luciferase activity by measuring the luminescence generated after the addition of the QUANTI-Luc reagent (InvivoGen) according to the manufacturer’s instructions with a PerkinElmer Victor3 luminometer.

[9] = tested on: IL-10 production, Raw-Blue macrophages; assay: IL-10 in RAW-Blue supernatants, ELISA; assay type: cell-based, murine; details: increasing concentrations (1, 10 µg/mL), 24 h, dose-dependent
Description: as §1

[10] = tested on: T. cruzi epimastigotes (RA strain); assay: In vitro activity against epimastigotes, [3H]-thymidine uptake assay; assay type: cell-based; details: Trypanosoma cruzi
[11] = tested on: T. cruzi (RA strain) infection in BALB/c mice; assay: In vivo trypanocidal activity in murine model of T. cruzi infection; design: species or system Trypanosoma cruzi; details: for Hazard ratio (logrank) vs vehicle: Kaplan–Meier survival; for decrease in the area under the parasitemia curve (AUC): fold vs untreated control group
[12] = read-out: IC50 ± SEM Amastigotes
[13] = value in brackets, read-out: IC50 Amastigotes (converted)
[14] = LPS 0.5 µg/mL, 1 or 10 µg/mL compound
[15] = primary splenocytes, read-out: CC50 µg/mL ± SEM
[16] = primary splenocytes, read-out: CC50
[17] = T. cruzi epimastigotes, 72 h incubation, read-out: IC50 ± SEM Epimastigotes
[18] = T. cruzi epimastigotes, 72 h incubation, value in brackets, read-out: IC50 Epimastigotes (converted)
[19] = infected BALB/c mice, 1 mg/kg/day i.p. each for 5 days

SMILES	IC50 [1, 12]	IC50 [1, 13]	CC50 at 48 h [6, 15]	CC50 at 48 h [6, 16]	IC50 [10, 17]	IC50 [10, 18]	Hazard ratio (logrank) vs vehicle ([11]; 1 mg/kg/day i.p. for 5 days)	decrease in the area under the parasitemia curve (AUC) [11, 19]	also measured
C=C1C(=O)[C@@]23CC[C@@H]4[C@](C)(C(=O)O)CCC[C@@]4(C)[C@]2(O)[C@@H](O)C[C@@H]1C3 (single isomer, unassigned; ent-9) [Compound 1, ent-9α,11α-dihydroxy-15-oxo-kaur-16-en-19-oic acid]	2.1 ± 0.3 µg/mL	6.1 µM	112 ± 3.4 µg/mL	322 µM	3.7 ± 0.5 µg/mL	10.6 µM	0.9	two-fold	NF-kB activation by TLR agonists (SEAP activity) ([2]; CpG 100 µg/mL, Poly(I:C) 100 µg/mL or LPS 0.5 µg/mL, compound 2.5 µg/mL): significantly inhibit NF-kB activation; LPS-mediated activation of NF-kB (SEAP activity) [2, 14]: dose-dependent inhibition; nitric oxide production (nitrite) with TLR ligands ([3]; CpG 100 µg/mL, Poly(I:C) 100 µg/mL or LPS 0.5 µg/mL, compound 2.5 µg/mL, 24 h): significant decrease in nitric oxide production; nitric oxide production (nitrite levels) after LPS ([3]; LPS-stimulated Raw-Blue macrophages, dose-dependent): significantly inhibited nitric oxide production; iNOS expression and NO production in vitro [4]: inhibit iNOS expression and NO production; ultrastructural effect on epimastigotes (TEM) ([5]; 48 h): formation of abnormal cytosolic membranous structures; ultrastructural effect on epimastigotes (TEM) ([5]; 72 h): Abnormal cytosolic membranous structures; TNF levels after LPS stimulation ([7]; LPS 0.5 µg/mL, 1 and 10 µg/mL compound): significantly reduced; basal levels of TNF ([7]; without LPS, increasing concentrations (1, 10 µg/mL)): significant decrease in the basal levels of TNF; Lucia luciferase activity after LPS stimulation [8, 14]: reduction in enzymatic activity; basal Lucia luciferase activity ([8]; unstimulated control cells, 1 or 10 µg/mL): did not affect the basal levels of Lucia luciferase activity; IL-10 production and secretion [9]: increase in the production and secretion of IL-10; parasitemia levels ([11]; infected BALB/c mice, 1 mg/kg/day i.p. for 5 days, vs vehicle): significant decrease in parasitemia levels
C=C1C(=O)[C@@]23CC[C@H]4[C@@](C)(CCC[C@@]4(C)C(=O)O)[C@@H]2[C@@H](O)C[C@@H]1C3 (single isomer, unassigned; ent-11) [Compound 3, ent-11α-hydroxy-15-oxo-kaur-16-en-19-oic acid]	20.1 ± 8.2 µg/mL	60.6 µM			1.6 ± 0.6 µg/mL	4.8 µM			CC50 at 48 h ([6]; read-out: CC50 µg/mL ± SEM): 4.9 ± 1.6 µg/mL; CC50 at 48 h ([6]; read-out: CC50): 14.8 µM
O=C(Cn1ccnc1[N+](=O)[O-])NCc1ccccc1 [Benznidazole, benznidazole, reference compound]	0.5 ± 0.04 µg/mL	1.9 µM	45.3 ± 1.8 µg/mL	81.5 µM			1.1	1.6	IC50 ([10]; 72 h, read-out: IC50 Epimastigotes): 4.2 µM; IC50 ([10]; 72 h, read-out: IC50 ± SEM Epimastigotes): 1.08 ± 0.2 µg/mL; mice remaining alive at the end of the acute infection phase ([11]; 1 mg/kg/day i.p. each for 5 days): none
C[C@H]1C(=O)[C@@]23CC[C@H]4[C@@](C)(CCC[C@@]4(C)C(=O)O)[C@@H]2[C@@H](O)C[C@@H]1C3 [Compound 2, (16R)-ent-11α-hydroxy-15-oxokauran-19-oic acid]	6.5 ± 0.2 µg/mL	19.5 µM	7.8 ± 0.2 µg/mL	23.3 µM	5.2 ± 0.3 µg/mL	15.9 µM			
